{
  "source": "paper PMC7961996",
  "about": "“Small Immunomodulatory Molecules as Potential Therapeutics in Experimental Murine Models of Acute Lung Injury (ALI)/Acute Respiratory Distress Syndrome (ARDS)” (International Journal of Molecular Sciences, 2021)",
  "origin": "cited, not measured here",
  "key": {"[1]": {"tested_on": "murine macrophages and human peripheral blood monocytes-hPBMC", "design": "method as in PMID 22654663", "details": "in vitro; cited from earlier work"}, "endotoxemia": {"tested_on": "endotoxemia", "design": "method as in PMID 22654663", "details": "in vivo; cited from earlier work"}},
  "data": [
    {"substance": "chitohexaose", "values": [
      {"measurement": "LPS-induced inflammatory mediators such as TNF-α and IL-6", "setting": "[1]", "result": "blocks lipopolysaccharide (LPS)-induced inflammatory mediators"},
      {"measurement": "endotoxemia", "setting": "endotoxemia", "result": "reduces endotoxemia"}
    ]}
  ]
}
